Measurements from patent US9932331B2, “Phenyl tetrahydroisoquinoline compound substituted with heteroaryl” (TAISHO PHARMACEUTICAL CO., LTD, priority 2014, dated 2018).
Where a name gives a salt, the structure may show the parent alone.

Biological target: T1, human NHE3 (Homo sapiens, UniProt P48764)
T1 sequence (P48764 26-834): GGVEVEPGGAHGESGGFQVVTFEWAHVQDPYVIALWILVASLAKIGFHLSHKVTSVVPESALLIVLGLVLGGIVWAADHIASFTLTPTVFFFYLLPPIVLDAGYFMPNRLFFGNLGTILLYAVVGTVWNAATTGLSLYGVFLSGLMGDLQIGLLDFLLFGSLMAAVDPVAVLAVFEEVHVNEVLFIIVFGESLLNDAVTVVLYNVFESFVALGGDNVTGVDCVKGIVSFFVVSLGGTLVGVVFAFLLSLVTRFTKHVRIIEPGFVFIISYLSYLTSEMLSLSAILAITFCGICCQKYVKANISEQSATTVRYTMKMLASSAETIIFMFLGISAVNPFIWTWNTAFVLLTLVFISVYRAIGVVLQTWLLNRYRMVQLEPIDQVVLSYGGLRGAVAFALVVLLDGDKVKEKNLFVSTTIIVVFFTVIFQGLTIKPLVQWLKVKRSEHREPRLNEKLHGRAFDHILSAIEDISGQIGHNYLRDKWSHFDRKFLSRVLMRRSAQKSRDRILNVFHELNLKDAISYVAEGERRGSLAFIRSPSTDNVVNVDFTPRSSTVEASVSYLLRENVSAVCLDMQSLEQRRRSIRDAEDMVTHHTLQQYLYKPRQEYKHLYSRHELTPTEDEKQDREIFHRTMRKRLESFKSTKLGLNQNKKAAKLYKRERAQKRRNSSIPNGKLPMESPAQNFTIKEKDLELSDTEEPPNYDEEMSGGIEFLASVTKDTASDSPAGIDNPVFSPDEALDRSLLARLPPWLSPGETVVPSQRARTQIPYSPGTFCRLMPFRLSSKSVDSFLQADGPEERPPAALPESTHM
Assay: NHE3 inhibition test (recovery of intracellular pH in cell line stably expressing human NHE3)
Type: cell-based
Conditions: OK cells deficient in endogenous NHE stably expressing human NHE3; BCECF fluorescence, initial rate of pH recovery; read-out: human NHE3 inhibitory activity IC50
In short: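 Opossum kidney cells lacking endogenous NHE, stably expressing human NHE3, loaded with BCECF-AM and acid-loaded by NH4Cl washout. Compound in Na-free buffer, then Na-containing buffer (pH 7.4) added; initial pH-recovery rate by BCECF fluorescence, IC50 versus no-compound recovery.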

COc1cc(-c2cccc([C@@H]3CN(C)Cc4c(Cl)cc(Cl)cc43)c2)ncn1 [Example 1-13, (4S)-6,8-Dichloro-4-[3-(6-methoxypyrimidin-4-yl)phenyl]-2-methyl-1,2,3,4-tetrahydroisoquinoline trifluoroacetate]
IC50: 271 nM

CN1Cc2c(Cl)cc(Cl)cc2[C@H](c2cccc(-c3cc(OCCOCCOCCOCCNC(=O)NCCCCNC(=O)NCCOCCOCCOCCOc4cc(-c5cccc([C@@H]6CN(C)Cc7c(Cl)cc(Cl)cc76)c5)ncn4)ncn3)c2)C1 [Example 7-31, 1,1′-Butane-1,4-diylbis(3-{2-[2-(2-{2-[(6-{3-[(4S)-6,8-dichloro-2-methyl-1,2,3,4-tetrahydroisoquinolin-4-yl]phenyl}pyrimidin-4-yl)oxy]ethoxy}ethoxy)ethoxy]ethyl}urea) hydrochloride]
IC50: 12.4 nM

CNc1cc(-c2cccc([C@@H]3CN(C)Cc4c(Cl)cc(Cl)cc43)c2)ccn1 [Example 1-9, 4-{3-[(4S)-6,8-Dichloro-2-methyl-1,2,3,4-tetrahydroisoquinolin-4-yl]phenyl}-N-methylpyridin-2-amine trifluoroacetate]
IC50: 561 nM

CN1Cc2c(Cl)cc(Cl)cc2C(c2cccc(-c3ccnc(NCCOCCOCCNC(=O)Nc4ccc(NC(=O)NCCOCCOCCNc5cc(-c6cccc(C7CN(C)Cc8c(Cl)cc(Cl)cc87)c6)ccn5)cc4)c3)c2)C1 (centres unmarked) [Example 7-41, 1,1′-Benzene-1,4-diylbis[3-(2-{2-[2-({4-[3-(6,8-dichloro-2-methyl-1,2,3,4-tetrahydroisoquinolin-4-yl)phenyl]pyridin-2-yl}amino)ethoxy]ethoxy}ethyl)urea]trifluoroacetate]
IC50: 5520 nM

CN1Cc2c(Cl)cc(Cl)cc2[C@H](c2cccc(-c3cccnc3)c2)C1 [Example 1-2, (4S)-6,8-Dichloro-2-methyl-4-[3-(pyridin-3-yl)phenyl]-1,2,3,4-tetrahydroisoquinoline trifluoroacetate]
IC50: 217 nM

CN1Cc2c(Cl)cc(Cl)cc2[C@H](c2cccc(-c3cc(NCCOCCOCCOCCNC(=O)[C@@H](O)[C@H](O)[C@H](O)[C@@H](O)C(=O)NCCOCCOCCOCCNc4cc(-c5cccc([C@@H]6CN(C)Cc7c(Cl)cc(Cl)cc76)c5)ncn4)ncn3)c2)C1 [Example 8-26, (2R,3S,4R,5S)-N,N′-Bis{2-[2-(2-{2-[(6-{3-[(4S)-6,8-dichloro-2-methyl-1,2,3,4-tetrahydroisoquinolin-4-yl]phenyl}pyrimidin-4-yl)amino]ethoxy}ethoxy)ethoxy]ethyl}-2,3,4,5-tetrahydroxyhexanediamide hydrochloride]
IC50: 2.2 nM

CN1Cc2c(Cl)cc(Cl)cc2[C@H](c2cccc(-c3nnc(CCOCCOCCOCCNC(=O)[C@H](O)[C@@H](O)C(=O)NCCOCCOCCOCCc4nnc(-c5cccc([C@@H]6CN(C)Cc7c(Cl)cc(Cl)cc76)c5)[nH]4)[nH]3)c2)C1 [Example 8-15, (2R,3R)-N,N′-Bis[2-(2-{2-[2-(5-{3-[(4S)-6,8-dichloro-2-methyl-1,2,3,4-tetrahydroisoquinolin-4-yl]phenyl}-4H-1,2,4-triazol-3-yl)ethoxy]ethoxy}ethoxy)ethyl]-2,3-dihydroxybutanediamide diformate]
IC50: 1.9 nM

CN1Cc2c(Cl)cc(Cl)cc2[C@H](c2cccc(-c3cn(CCOCCOCCOCCNC(=O)[C@H](O)[C@@H](O)C(=O)NCCOCCOCCOCCn4cc(-c5cccc([C@@H]6CN(C)Cc7c(Cl)cc(Cl)cc76)c5)nn4)nn3)c2)C1 [Example 8-5, (2R,3R)-N,N′-Bis[2-(2-{2-[2-(4-{3-[(4S)-6,8-dichloro-2-methyl-1,2,3,4-tetrahydroisoquinolin-4-yl]phenyl}-1H-1,2,3-triazol-1-yl)ethoxy]ethoxy}ethoxy)ethyl]-2,3-dihydroxybutanediamide hydrochloride]
IC50: 2.8 nM
